≈ marks a conversion by molar mass, not a printed value. Blank lines part the entries; values can stand above or below the compound they belong to.
Experiments:
[1] = Solubility in water and in organic solvents (chemical and physical characteristics); settings: for solubility in water: in words
[2] = Lipid/water partition parameter RM from thin-film chromatography on silica gel; format: physicochemical; settings: for ΔRM solvent 1 / RM solvent 1 / RF solvent 1: Solvent 1: 100% ethyl acetate; for ΔRM solvent 1 / ΔRM solvent 2: RM of derivative minus RM of corresponding alkanolamide; for RM solvent 1 / RM solvent 2: RM=log (1/Rf−1); for RF solvent 1 / RF solvent 2: silica gel; for ΔRM solvent 2 / RM solvent 2 / RF solvent 2: Solvent 2: heptane:isopropanol:ethyl acetate:H2O 40:20:50:2
Method: The chemical and physical characteristics of the derivatives according to the invention were evaluated by quantitative measurement of the lipid/water partition parameter.
A useful parameter for evaluating the properties of a compound in relation to its possible absorption is in fact constituted by the coefficient of partition between the lipid phase and the aqueous phase, which is considered to be an expression of its lipophilicity and its degree of hydrophilicity. […] For the purpose of evaluating the characteristics of the derivatives of the invention, the partition parameter RM between the lipid and the aqueous phase, extrapolated from thin-film partition chromatography, was calculated; this parameter is commonly used to evaluate the lipophilic characteristics of compounds (Tomlinson E. J. Chromatogr. 1975, 113, 1) and is commonly used, for example, for local anaesthetics, in which a correlation has been shown between this parameter and biological activity (Bachrata M. et al. J. Chromatogr. 1979, 171, 29-36).
The partition parameter RM between the lipid phase and the aqueous phase was calculated both for the derivatives and for the non-substituted alkanolamides, from the Rf value obtained by thin-film chromatography on silica gel (particles of […], mean porosity 60 Å, thickness 0.25 mm on glass plate) in accordance with the formula: RM=log (1/Rf−1) and the ΔRM was obtained from the difference between the RM coefficients of the derivative and of the corresponding alkanolamide.

CB1 receptor = target: T1, CB1 receptor (Mus musculus, UniProt P47746); test: Binding of [3H]SR141716A to membranes of N18TG2 cells; settings: cell membranes, 300 pM ligand, 90' at 30° C.; read-out: Ki CB1 Receptor N18TG2 cells Lig. [3H]SR141716A
T1 construct: endogenous in cells; host or cells: mouse N18TG2 neuroblastoma cells
T1 sequence (P47746 whole entry): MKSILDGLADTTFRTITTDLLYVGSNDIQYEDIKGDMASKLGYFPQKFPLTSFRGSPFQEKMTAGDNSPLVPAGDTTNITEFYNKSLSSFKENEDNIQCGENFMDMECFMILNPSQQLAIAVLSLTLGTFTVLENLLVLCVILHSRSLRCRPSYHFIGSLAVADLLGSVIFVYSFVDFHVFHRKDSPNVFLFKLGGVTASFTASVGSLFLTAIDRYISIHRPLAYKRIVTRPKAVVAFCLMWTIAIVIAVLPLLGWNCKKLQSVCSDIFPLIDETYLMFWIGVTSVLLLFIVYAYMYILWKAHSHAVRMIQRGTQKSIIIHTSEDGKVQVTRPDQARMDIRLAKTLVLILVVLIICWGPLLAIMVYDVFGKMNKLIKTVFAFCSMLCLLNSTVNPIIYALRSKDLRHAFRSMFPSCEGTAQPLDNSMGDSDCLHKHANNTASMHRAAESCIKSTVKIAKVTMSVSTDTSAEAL
Text: (§1) Effect of alkanolamide molecules on the binding of the synthetic ligands of the CB2 and CB1 cannabinoid receptors, respectively.
(§2) Rat RBL-2H3+ leukemic basophilic cells, which selectively express the cannabinoid CB2 receptor, and mouse N18TG2 neuroblastoma cells which selectively express the CB1 cannabinoid receptor were used. The cells were cultivated as described above (Facci L. et al. (1995) Proc. Natl: Acad: Sci. U.S.A. 92:: 3376-3380; Bisogno T. et al. 1997 J. Biol. Chem., 272: 3315-3323). WIN 55,212.2 was used as the selectively agonist synthetic ligand for the CB2 receptor.
SR141716A was used as the selective antagonist for the CB1 receptor.
(§3) [^3H]SR141716A (55 Ci/mmol) was supplied by Amersham; [^3H]WIN55,212-2 (43 Ci/mmol) was supplied by NEN. The binding tests were performed with membranes of the cells resuspended in 50 mMol Tris pH 7.0 buffer; 2.5 mMol MgCl2, 0.8 mMol EDTA; 0.05% bovine serum albumin (BSA); 0.01% ethanol, in the presence of 100 μM of phenyl-methyl-sulphonyl fluoride (PMSF-Sigma), with the use, of 300 pM of [^3H]SR141716A and of [^3H]WIN55,212-2, respectively, as the ligand.
(§4) The membranes were incubated for 90′ at 30° C. and filtered on glass microfibre filters (GFC-Whatman) and the radioactivity was detected by liquid scintillation. The specific binding was calculated with the use of either 10 μM SR141716A or 10 μM HU-210.
(§5) The Ki values were calculated by Chang-Prusoff's equation and expressed as concentration μM.

CB2 receptor = target: T2, CB2 receptor (Rattus norvegicus, UniProt Q9QZN9); test: Binding of [3H]WIN55,212-2 to membranes of RBL-2H3+ cells; settings: cell membranes, 300 pM ligand, 90' at 30° C.; read-out: Ki CB2 receptor RBL-2H3 + cells Lig. [3H]WIN55, 212-2
T2 construct: endogenous in cells; host or cells: rat RBL-2H3+ leukemic basophilic cells
T2 sequence (Q9QZN9 1-360): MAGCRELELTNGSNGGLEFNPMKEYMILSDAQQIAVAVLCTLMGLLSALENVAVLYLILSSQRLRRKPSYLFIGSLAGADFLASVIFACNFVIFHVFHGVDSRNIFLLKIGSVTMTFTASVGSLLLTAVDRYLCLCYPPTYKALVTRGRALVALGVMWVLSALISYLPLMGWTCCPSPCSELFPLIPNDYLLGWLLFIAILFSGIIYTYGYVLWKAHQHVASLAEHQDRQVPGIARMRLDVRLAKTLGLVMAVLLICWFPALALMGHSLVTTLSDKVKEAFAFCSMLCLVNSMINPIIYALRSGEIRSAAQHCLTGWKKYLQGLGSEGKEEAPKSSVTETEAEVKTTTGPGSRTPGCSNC
Text: as §1, §2
HU-210 was used as the selective […] for the CB2 receptor.
as §3, §4, §5

[3] = ethanol, organic solvent or mixture
[4] = ethyl acetate, organic solvent or mixture
[5] = n-octanol, organic solvent or mixture

SMILES: CCCCCCCCCCCCCCCC(=O)NCCOC1CCCO1 (centres unmarked) [Example 9, tetrahydrofuranyl ether of N-(2-hydroxyethyl) hexadecanamide]
solubility in organic solvents: ethanol [1]: 10 mg/ml in ethanol | solubility in water [1]: slightly soluble | ΔRM solvent 1 [2]: −0.630 | RM solvent 1 [2]: 0.158 | RF solvent 1 [2]: 0.41 | ΔRM solvent 2 [2]: −0.247 | RM solvent 2 [2]: −0.213 | RF solvent 2 [2]: 0.62

SMILES: CCCCCCCC/C=C\CCCCCCCC(=O)NCCOC(=O)OCC [Example 13, N-[2-(ethoxycarbonyl)oxyethyl] oleoylamide]
solubility in organic solvents: ethanol [1]: 10 mg/ml in ethanol, | solubility in water [1]: slightly soluble | ΔRM solvent 1 [2]: −0.984 | RM solvent 1 [2]: −0.231 | RF solvent 1 [2]: 0.63 | ΔRM solvent 2 [2]: −0.365 | RM solvent 2 [2]: −0.347 | RF solvent 2 [2]: 0.69

SMILES: CCCCCCCCCCCCCCCC(=O)NCCOC(=O)NCc1ccccc1 [Example 5]
solubility in organic solvents: ethyl acetate, hot ([1]; ethyl acetate, hot): 10 mg/ml in ethyl | solubility in water [1]: slightly soluble | solubility in organic solvents: n-octanol, hot ([1]; n-octanol, hot): 10 mg/ml in ethyl | ΔRM solvent 1 [2]: −0.736 | RM solvent 1 [2]: 0.052 | RF solvent 1 [2]: 0.47 | ΔRM solvent 2 [2]: −0.304 | RM solvent 2 [2]: −0.269 | RF solvent 2 [2]: 0.65

SMILES: O=C(CCCCCCCC(=O)NCCOC1CCCCO1)NCCOC1CCCCO1 (centres unmarked) [Example 12, tetrahydropyranyl ether of N,N^1-bis(2-hydroxyethyl) nonandiamide]
solubility in organic solvents: ethanol [1]: 10 mg/ml in ethanol | ΔRM solvent 1 [2]: −0.494 | RM solvent 1 [2]: −0.105 | RF solvent 1 [2]: 0.56 | ΔRM solvent 2 [2]: −0.706 | RM solvent 2 [2]: −0.017 | RF solvent 2 [2]: 0.51

SMILES: O=C(CCCCCCCC(=O)NCCOC1CCCO1)NCCOC1CCCO1 (centres unmarked) [Example 10, tetrahydrofuranyl ether of N,N^1-bis(2-hydroxyethyl) nonandiamide]
solubility in organic solvents: ethanol [1]: 10 mg/ml in ethanol | ΔRM solvent 1 [2]: −0.424 | RM solvent 1 [2]: −0.035 | RF solvent 1 [2]: 0.52 | ΔRM solvent 2 [2]: −0.584 | RM solvent 2 [2]: 0.105 | RF solvent 2 [2]: 0.44

SMILES: CCCCCCCCCCCCCCCC(=O)NCCOC(=O)OCC(C)C [Example 2, N-[2-(isobutyloxycarbonyl)oxyethyl] hexadecanamide]
solubility (physchem; [3]): 10000 µg/mL (≈ 25 mM) | solubility (physchem; [4]): 1000 µg/mL (≈ 2.5 mM) | solubility (physchem; [5]): 10000 µg/mL (≈ 25 mM) | solubility in water [1]: slightly soluble | ΔRM solvent 1 [2]: −1.076 | RM solvent 1 [2]: −0.288 | RF solvent 1 [2]: 0.66 | ΔRM solvent 2 [2]: −0.467 | RM solvent 2 [2]: −0.432 | RF solvent 2 [2]: 0.73

SMILES: CCCCCCCCCCCCCCCC(=O)NCCOC1CCCCO1 (centres unmarked) [Example 11, tetrahydropyranyl ether of N-(2-hydroxyethyl) hexadecanamide]
solubility in organic solvents: ethyl acetate ([1]; ethyl acetate): 10 mg/ml in ethyl | solubility in water [1]: slightly soluble | solubility in organic solvents: n-octanol ([1]; n-octanol): 10 mg/ml in ethyl | ΔRM solvent 1 [2]: 0.666 | RM solvent 1 [2]: 0.122 | RF solvent 1 [2]: 0.43 | ΔRM solvent 2 [2]: −0.304 | RM solvent 2 [2]: −0.269 | RF solvent 2 [2]: 0.65

SMILES: CCCCCCCCCCCCCCCC(=O)NCCOC(=O)OCCN1CCCCC1 [Example 7, N-[2-[(2-piperidinoethoxy)carbonyl]oxyethyl] hexadecanamide]
Ki (CB1 receptor): > 15 µM | solubility (physchem; [3]): 10000 µg/mL (≈ 22 mM) | solubility in water [1]: slightly soluble | ΔRM solvent 1 [2]: 0.49 | RM solvent 1 [2]: 1.28 | RF solvent 1 [2]: 0.05 | Ki (CB2 receptor): 0.009 ± 0.0025 µM

More lines, now with the values ahead:

solubility (physchem; [3]): 10000 µg/mL (≈ 25.9 mM) | solubility (physchem; [4]): 10000 µg/mL (≈ 25.9 mM) | solubility (physchem; [5]): 10000 µg/mL (≈ 25.9 mM) | solubility in water [1]: slightly soluble | ΔRM solvent 1 [2]: −1.020 | RM solvent 1 [2]: −0.194 | RF solvent 1 [2]: 0.61 | ΔRM solvent 2 [2]: −0.397 | RM solvent 2 [2]: −0.327 | RF solvent 2 [2]: 0.68
SMILES: CCCCCCCCCCCCCCCC(=O)NCCCOC(=O)OCC [Example 3, N-[3-(ethoxycarbonyl)oxypropyl]hexadecanamide]

Ki (CB1 receptor): > 15 µM | Ki (CB2 receptor): > 15 µM
SMILES: CCCCC1C(=O)N(c2ccccc2)N(c2ccccc2)C1=O [phenyl butazone, reference compound]

solubility (physchem; DMSO, organic solvent or mixture): 10000 µg/mL | solubility (physchem; [3]): 10000 µg/mL | solubility (physchem; water): 10000 µg/mL
SMILES: CCCCCCCCCCCCCCCC(=O)NCCOC(=O)OCCN1CCCCC1.CS(=O)(=O)O [Example 8, N-[2-[(2-piperidinoethoxy)carbonyl]oxyethyl] hexadecanamide methane sulphonate]

Ki (CB1 receptor): > 15 µM | solubility (physchem; [3]): 10000 µg/mL (≈ 26.9 mM) | solubility (physchem; [4]): 10000 µg/mL (≈ 26.9 mM) | solubility (physchem; [5]): 10000 µg/mL (≈ 26.9 mM) | solubility in water [1]: slightly soluble | ΔRM solvent 1 [2]: −1.001 | RM solvent 1 [2]: −0.213 | RF solvent 1 [2]: 0.62 | ΔRM solvent 2 [2]: −0.403 | RM solvent 2 [2]: −0.368 | RF solvent 2 [2]: 0.70 | Ki (CB2 receptor): 0.006 ± 0.0018 µM
SMILES: CCCCCCCCCCCCCCCC(=O)NCCOC(=O)OCC [Example 1, N-[2-(ethoxycarbonyl)oxyethyl]hexadecanamide]
